The assay deals with transiently ocular hypertensive New Zealand white rabbits. Put plainly: Intraocular pressure (IOP) lowering activity in hypertonic saline-induced IOP increase in rabbits. It counts as in vivo. As to conditions: for Mean IOP changes vs vehicle and baseline, 60 min: 60 min after topical application, hypertonic saline 5% intravitreal; for Mean IOP changes vs vehicle and baseline, 60 min / IOP60 min reduction vs vehicle / Mean IOP changes vs vehicle and baseline, 90 min / Mean IOP changes vs vehicle and baseline, 180 min / Mean IOP changes vs vehicle and baseline, 300 min / Maximal IOP reduc. / Mean IOP changes vs vehicle and baseline, 120 min / Mean IOP changes vs vehicle and baseline, 240 min: dose (%); for IOP60 min reduction vs vehicle / Delta60 min vs parent drug: 60 minutes after topical administration; for Delta60 min vs parent drug: parent drug bimatoprost (A-1, B-1) or fluprostenol isopropyl ester (Comp. 9-13); for Mean IOP changes vs vehicle and baseline, 90 min: 90 min after topical application; for Mean IOP changes vs vehicle and baseline, 90 min / Mean IOP changes vs vehicle and baseline, 180 min / Mean IOP changes vs vehicle and baseline, 300 min: treatment group B (pneumatonometer); for Mean IOP changes vs vehicle and baseline, 180 min: 180 min after topical application; for Mean IOP changes vs vehicle and baseline, 300 min: 300 min after topical application; for Maximal IOP reduc.: topical application; for Mean IOP changes vs vehicle and baseline, 120 min: 120 min after topical application; for Mean IOP changes vs vehicle and baseline, 120 min / Mean IOP changes vs vehicle and baseline, 240 min: treatment group A (Tono-Pen VET); for Mean IOP changes vs vehicle and baseline, 240 min: 240 min after topical application. An excerpt:
Intraocular Pressure (IOP) Lowering Activity in Hypertonic Saline-Induced IOP Increase in Rabbits
Compounds (9), (10), (11), (12) and (13) of the invention and compounds (A-1) and (B-1) disclosed in WO 2009/136281 were directly compared with fluprostenol isopropyl ester and bimatoprost, in the same model of ocular hypertensive rabbit. The hypotensive effects of the two groups of compounds were independently evaluated at different time points and in different sets of hypertensive rabbits.
Test compounds and dose (equimolar to the correspondent parent drug)
Vehicle: buffered aqueous solution pH 6, polyoxyl 40 hydrogenated castor oil 5 mg/ml, tromethamine 10 mg/ml, boric acid 6 mg/ml, mannitol 40 mg/ml, edetate disodium 0.5 mg/ml and benzalkonium chloride 0.15 mg/mL
Male New Zealand white rabbits weighing 2.0-2.5 kg were used in the experiments. The transient increase in IOP was induced by the injection of 0.1 ml of hypertonic saline solution (5%) into the vitreous of both eyes.
Intraocular pressure (IOP) was determined using a Tono-Pen VET prior to hypertonic saline injection (basal) and at 30, 60, 120 and 240 min thereafter. Vehicle or tested compound dissolved in the vehicle was instilled immediately after the injection of hypertonic saline into the conjunctival pocket. Eyes were randomly assigned to different treatment groups.
One drop of 0.4% oxybuprocaine hydrochloride (Novesine, Sandoz) was instilled in each eye immediately before each set of pressure measurements.
Treatment Groups B (Prior Art Compounds)
Vehicle: tween 80 0.5%, 0.2 mg/ml benzalkonium chloride, 0.3% DMSO in PBS pH 6.7
Intraocular pressure (IOP) was determined using a pneumatonometer prior to hypertonic saline injection (basal) and at 30, 60, 90, 180 and 300 min thereafter. Vehicle or tested compound dissolved in the vehicle was instilled immediately after the injection of hypertonic saline into the conjunctival pocket. Eyes were randomly assigned to different treatment groups.
The intraocular pressure values measured following topical application of the tested compounds are reported in Table 1 expressed as mean IOP change in treated eyes versus vehicle-treated eyes at same time point and baseline; Table 1 also reports the maximal IOP reduction of the tested compounds expressed in percentage.

Take `CCNC(=O)CCC/C=C\C[C@@H]1[C@@H](/C=C/[C@H](CCc2ccccc2)OC(=O)CCCO[N+](=O)[O-])[C@H](O)C[C@@H]1O` [Compound A-1, (1S,2E)-3-{(1R,2R,3 S,5R)-2-[(2Z)-7-(Ethylamino)-7-oxohept-2-en-1-yl]-3,5-dihydroxycyclopentyl}-1-(2-phenylethyl)prop-2-en-1-yl 4-(nitrooxy) butanoate, reference compound]: the “Mean IOP changes vs vehicle and baseline, 60 min” value (“Mean IOP changes … 60 min” for short) is on record as −0.06 ± 5.2 mmHg; the “IOP60 min reduction vs vehicle” value amounted to 4%; the “Delta60 min vs parent drug” value is listed as “Not effective”; the “Mean IOP changes vs vehicle and baseline, 90 min” value (“Mean IOP changes … 90 min” below) came to 0.03 ± 5.0 mmHg. In addition, the “Mean IOP changes vs vehicle and baseline, 180 min” value (shortened to “Mean IOP changes … 180 min”) stood at 1.1 ± 2.8 mmHg; the “Mean IOP changes vs vehicle and baseline, 300 min” value (from here on “Mean IOP changes … 300 min”) is listed as −1.9 ± 3.2 mmHg; the “Maximal IOP reduc.” value came out at 3 ± 9%.

Turning to `CC(C)OC(=O)CCC/C=C\C[C@@H]1[C@@H](/C=C/[C@H](COc2cccc(C(F)(F)F)c2)OC(=O)COCCO[N+](=O)[O-])[C@H](O)C[C@@H]1O` [Comp. (11), (Z)-isopropyl 7-((1R,2R,3R,5S)-3,5-dihydroxy-2-((R,E)-3-(2-(2-nitrooxyethoxy)acetoxy)-4-(3-(trifluoromethyl)phenoxy)but-1-enyl)cyclopentyl)hept-5-enoate], the “Mean IOP changes … 60 min” value is reported as −9.7 ± 0.8 mmHg; the “IOP60 min reduction vs vehicle” value came to 32%; the “Delta60 min vs parent drug” value was −9.6 mmHg; the “Mean IOP changes vs vehicle and baseline, 120 min” value (“Mean IOP changes … 120 min” for short) is on record as −7.4 ± 0.9 mmHg. In addition, the “Mean IOP changes vs vehicle and baseline, 240 min” value (“Mean IOP changes … 240 min” for short) is −3.2 ± 0.6 mmHg; the “Maximal IOP reduc.” value was determined as 37 ± 4%.

For the compound `CCNC(=O)CCC/C=C\C[C@@H]1[C@@H](/C=C/[C@H](CCc2ccccc2)OC(=O)CCCCCO[N+](=O)[O-])[C@H](O)C[C@@H]1O` [Compound B-1, (1S,2E)-3-{(1R,2R,3S,5R)-2-[(2Z)-7-(Ethylamino)-7-oxohept-2-en-1-yl]-3,5-dihydroxycyclopentyl}-1-(2-phenylethyl)prop-2-en-1-yl 6-(nitrooxy) hexanoate, reference compound], the “Mean IOP changes … 60 min” value is −3.9 ± 2.5 mmHg; the “IOP60 min reduction vs vehicle” value worked out at 7%; the “Delta60 min vs parent drug” value was −2.1 mmHg; the “Mean IOP changes … 90 min” value was −5.6 ± 2.8 mmHg. Further, the “Mean IOP changes … 180 min” value is 5.3 ± 1.5 mmHg; the “Mean IOP changes … 300 min” value is reported as −3.9 ± 1.9 mmHg; the “Maximal IOP reduc.” value was 10 ± 3%.

Regarding `CC(C)OC(=O)CCC/C=C\C[C@@H]1[C@@H](/C=C/[C@H](COc2cccc(C(F)(F)F)c2)OC(=O)CCCCCO[N+](=O)[O-])[C@H](O)C[C@@H]1O` [Comp. (9)], the “Mean IOP changes … 60 min” value was −6.6 ± 0.9 mmHg; the “IOP60 min reduction vs vehicle” value is reported as 20%; the “Delta60 min vs parent drug” value is listed as −6.5 mmHg; the “Mean IOP changes … 120 min” value was −8.2 ± 1.2 mmHg. The “Mean IOP changes … 240 min” value was −2.0 ± 0.7 mmHg; the “Maximal IOP reduc.” value is given as 23 ± 3%.

As to `O=C(O)CCC/C=C\C[C@@H]1[C@@H](/C=C/[C@H](COc2cccc(C(F)(F)F)c2)OC(=O)CCCC(CO[N+](=O)[O-])O[N+](=O)[O-])[C@H](O)C[C@@H]1O` (stereo partly drawn) [Comp. (13), (Z)-7-((1R,2R,3R,5S)-2-((R,E)-3-(5,6-bis(nitrooxy)hexanoyloxy)-4-(3-(trifluoromethyl)phenoxy)but-1-enyl)-3,5-dihydroxycyclopentyl)hept-5-enoic acid], the “Mean IOP changes … 60 min” value was −8.6 ± 1.2 mmHg; the “IOP60 min reduction vs vehicle” value came out at 31%; the “Delta60 min vs parent drug” value is reported as −8.5 mmHg; the “Mean IOP changes … 120 min” value is −6.9 ± 0.9 mmHg. In addition, the “Mean IOP changes … 240 min” value was −0.3 ± 1.0 mmHg; the “Maximal IOP reduc.” value came to 39 ± 3%.

Regarding `CCNC(=O)CCC/C=C\C[C@@H]1[C@@H](/C=C/[C@@H](O)CCc2ccccc2)[C@H](O)C[C@@H]1O` [Bimatoprost, reference compound], the “Mean IOP changes … 60 min” value is on record as −1.8 ± 2.4 mmHg; the “IOP60 min reduction vs vehicle” value is reported as 1%; the “Delta60 min vs parent drug” value is on record as 0 mmHg; the “Mean IOP changes … 90 min” value is reported as −2.7 ± 2.0 mmHg. The “Mean IOP changes … 180 min” value is 0.8 ± 1.5 mmHg; the “Mean IOP changes … 300 min” value came out at 0.3 ± 2.6 mmHg.

As to `CC(C)OC(=O)CCC/C=C\C[C@@H]1[C@@H](/C=C/[C@@H](O)COc2cccc(C(F)(F)F)c2)[C@H](O)C[C@@H]1O` [Fluprostenol isopropyl ester, reference compound], the “Mean IOP changes … 60 min” value is −0.08 ± 1.2 mmHg; the “IOP60 min reduction vs vehicle” value is reported as 3%; the “Delta60 min vs parent drug” value was found to be 0 mmHg; the “Mean IOP changes … 120 min” value is on record as −2.0 ± 1.3 mmHg. Besides, the “Mean IOP changes … 240 min” value was −0.4 ± 0.9 mmHg.

Turning to `CC(C)OC(=O)CCC/C=C\C[C@@H]1[C@@H](/C=C/[C@H](COc2cccc(C(F)(F)F)c2)OC(=O)CCCC(CO[N+](=O)[O-])O[N+](=O)[O-])[C@H](O)C[C@@H]1O` (stereo partly drawn) [Comp. (10), (Z)-isopropyl 7-((1R,2R,3R,5S)-2-((3R,E)-3-(5,6-bis(nitrooxy)hexanoyloxy)-4-(3-(trifluoromethyl)phenoxy)but-1-enyl)-3,5-dihydroxycyclopentyl)hept-5-enoate], the “Mean IOP changes … 60 min” value is listed as −9.2 ± 1.0 mmHg; the “IOP60 min reduction vs vehicle” value stood at 28%; the “Delta60 min vs parent drug” value is −9.1 mmHg; the “Mean IOP changes … 120 min” value is −8.8 ± 1.2 mmHg. Also, the “Mean IOP changes … 240 min” value is listed as −1.2 ± 0.8 mmHg; the “Maximal IOP reduc.” value stood at 26 ± 3%.

Take `CC(C)OC(=O)CCC/C=C\C[C@@H]1[C@@H](/C=C/[C@H](COc2cccc(C(F)(F)F)c2)OC(=O)CCOCC(CO[N+](=O)[O-])O[N+](=O)[O-])[C@H](O)C[C@@H]1O` (stereo partly drawn) [Comp. (12), (Z)-isopropyl 7-((1R,2R,3R,5S)-2-((3R,E)-3-(3-(2,3-bis(nitrooxy)propoxy)propanoyloxy)-4-(3-(trifluoromethyl)phenoxy)but-1-enyl)-3,5 dihydroxycyclopentyl)hept-5-enoate]: the “Mean IOP changes … 60 min” value is recorded as −7.1 ± 0.8 mmHg; the “IOP60 min reduction vs vehicle” value is reported as 22%; the “Delta60 min vs parent drug” value is listed as −7.0 mmHg; the “Mean IOP changes … 120 min” value was −9.6 ± 1.0 mmHg. The “Mean IOP changes … 240 min” value is given as −2.9 ± 0.5 mmHg; the “Maximal IOP reduc.” value is recorded as 38 ± 3%.

For the origin of these results see patent US10280138B2, “Nitric oxide donating derivatives of fluprostenol” (NICOX S.A., priority 2015, dated 2019).
